Experimental data from PubChem BioAssay (NCI).
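Where inhibition never reached the appropriate level, the endpoint shown equals the highest concentration tested. Otherwise, values were interpolated linearly from a five-concentration, 48-hour dose response in 96-well plates. GI50 is the concentration that inhibits growth by half. Definition used: TGI = concentration required for complete inhibition of growth.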

How the values were obtained:
Assay in all cases: growth of human tumour cells (NCI), 48 h
786-0 renal = system: 786-0 renal
A498 renal = system: A498 renal
A549 NSCLC = system: A549 NSCLC
ACHN renal = system: ACHN renal
BT-549 breast = system: BT-549 breast
CAKI-1 renal = system: CAKI-1 renal
CCRF-CEM leukemia = system: CCRF-CEM leukemia
COLO 205 colon = system: COLO 205 colon
DU-145 prostate = system: DU-145 prostate
EKVX NSCLC = system: EKVX NSCLC
HCC-2998 colon = system: HCC-2998 colon
HCT-116 colon = system: HCT-116 colon
HCT-15 colon = system: HCT-15 colon
HL-60(TB) leukemia = system: HL-60(TB) leukemia
HOP-62 NSCLC = system: HOP-62 NSCLC
HOP-92 NSCLC = system: HOP-92 NSCLC
HS 578T breast = system: HS 578T breast
HT29 colon = system: HT29 colon
IGROV1 ovarian = system: IGROV1 ovarian
K-562 leukemia = system: K-562 leukemia
KM12 colon = system: KM12 colon
LOX IMVI melanoma = system: LOX IMVI melanoma
M14 melanoma = system: M14 melanoma
MALME-3M melanoma = system: MALME-3M melanoma
MCF7 breast = system: MCF7 breast
MDA-MB-231 breast = system: MDA-MB-231 breast
MDA-MB-435 = system: MDA-MB-435
MOLT-4 leukemia = system: MOLT-4 leukemia
NCI-H226 lung = system: NCI-H226 lung
NCI-H460 lung = system: NCI-H460 lung
NCI-H522 lung = system: NCI-H522 lung
NCI/ADR-RES ovarian = system: NCI/ADR-RES ovarian
OVCAR-3 ovarian = system: OVCAR-3 ovarian
OVCAR-4 ovarian = system: OVCAR-4 ovarian
OVCAR-5 ovarian = system: OVCAR-5 ovarian
OVCAR-8 ovarian = system: OVCAR-8 ovarian
PC-3 prostate = system: PC-3 prostate
RPMI-8226 leukemia = system: RPMI-8226 leukemia
RXF 393 renal = system: RXF 393 renal
SF-268 CNS = system: SF-268 CNS
SF-295 CNS = system: SF-295 CNS
SF-539 CNS = system: SF-539 CNS
SK-MEL-2 melanoma = system: SK-MEL-2 melanoma
SK-MEL-28 melanoma = system: SK-MEL-28 melanoma
SK-MEL-5 melanoma = system: SK-MEL-5 melanoma
SK-OV-3 ovarian = system: SK-OV-3 ovarian
SN12C renal = system: SN12C renal
SNB-19 CNS = system: SNB-19 CNS
SNB-75 CNS = system: SNB-75 CNS
SR leukemia = system: SR leukemia
SW-620 colon = system: SW-620 colon
T-47D breast = system: T-47D breast
TK-10 renal = system: TK-10 renal
U251 CNS = system: U251 CNS
UACC-257 melanoma = system: UACC-257 melanoma
UACC-62 melanoma = system: UACC-62 melanoma
UO-31 renal = system: UO-31 renal

## CCNC(=O)N1CCc2cc(OC)c(OCCc3ccc(OC)cc3)cc2C1c1ccc(Cl)cc1C (stereo not given)
786-0 renal
  GI50: 0.421 µM
  TGI: > 100 µM
A498 renal
  GI50: 4.02 µM
  TGI: > 24.2 µM
A549 NSCLC
  GI50: 0.735 µM
  TGI: > 100 µM
ACHN renal
  GI50: 0.676 µM
  TGI: > 100 µM
BT-549 breast
  GI50: 1.06 µM
  TGI: 4.57 µM
CAKI-1 renal
  GI50: 0.736 µM
  TGI: > 50.1 µM
CCRF-CEM leukemia
  GI50: 0.382 µM
  TGI: > 100 µM
COLO 205 colon
  GI50: 1.02 µM
  TGI: 5.94 µM
DU-145 prostate
  GI50: 0.83 µM
  TGI: > 100 µM
EKVX NSCLC
  GI50: 4.09 µM
  TGI: > 100 µM
HCC-2998 colon
  GI50: 1.27 µM
  TGI: > 33.3 µM
HCT-116 colon
  GI50: 0.0866 µM
  TGI: > 100 µM
HCT-15 colon
  GI50: 0.0853 µM
  TGI: > 100 µM
HL-60(TB) leukemia
  GI50: 0.643 µM
  TGI: 3.97 µM
HOP-62 NSCLC
  GI50: 0.958 µM
  TGI: > 100 µM
HOP-92 NSCLC
  GI50: 1.48 µM
  TGI: > 21.4 µM
HS 578T breast
  GI50: 1.7 µM
  TGI: 8.99 µM
HT29 colon
  GI50: 0.444 µM
  TGI: 3.14 µM
IGROV1 ovarian
  GI50: 0.607 µM
  TGI: > 100 µM
K-562 leukemia
  GI50: 0.0924 µM
  TGI: > 100 µM
KM12 colon
  GI50: 1.38 µM
  TGI: > 31.4 µM
LOX IMVI melanoma
  GI50: 0.186 µM
  TGI: 1.77 µM
M14 melanoma
  GI50: 0.726 µM
  TGI: > 100 µM
MALME-3M melanoma
  GI50: 3.65 µM
  TGI: > 100 µM
MCF7 breast
  GI50: 0.422 µM
  TGI: > 100 µM
MDA-MB-231 breast
  GI50: 0.801 µM
  TGI: > 100 µM
MDA-MB-435
  GI50: 0.66 µM
  TGI: 5.82 µM
MOLT-4 leukemia
  GI50: 0.338 µM
  TGI: > 100 µM
NCI-H226 lung
  GI50: 1.89 µM
  TGI: 7.06 µM
NCI-H460 lung
  GI50: 0.1 µM
  TGI: 2.25 µM
NCI-H522 lung
  GI50: 0.7 µM
  TGI: 2.95 µM
NCI/ADR-RES ovarian
  GI50: 0.735 µM
  TGI: 5.81 µM
OVCAR-3 ovarian
  GI50: 1.04 µM
  TGI: > 100 µM
OVCAR-4 ovarian
  GI50: 2.58 µM
  TGI: > 100 µM
OVCAR-5 ovarian
  GI50: 1.86 µM
  TGI: > 100 µM
OVCAR-8 ovarian
  GI50: 0.669 µM
  TGI: > 100 µM
PC-3 prostate
  GI50: 0.217 µM
  TGI: > 100 µM
RPMI-8226 leukemia
  GI50: 0.403 µM
  TGI: 3.95 µM
RXF 393 renal
  GI50: 1.45 µM
  TGI: > 21.6 µM
SF-268 CNS
  GI50: 1.03 µM
  TGI: > 100 µM
SF-295 CNS
  GI50: 0.711 µM
  TGI: 12.7 µM
SF-539 CNS
  GI50: 0.41 µM
  TGI: 3.16 µM
SK-MEL-2 melanoma
  GI50: 3.52 µM
  TGI: > 23.7 µM
SK-MEL-28 melanoma
  GI50: 0.943 µM
  TGI: > 100 µM
SK-MEL-5 melanoma
  GI50: 0.67 µM
  TGI: 2.31 µM
SK-OV-3 ovarian
  GI50: 2.11 µM
  TGI: > 100 µM
SN12C renal
  GI50: 1.02 µM
  TGI: > 25 µM
SNB-19 CNS
  GI50: 0.683 µM
  TGI: > 100 µM
SNB-75 CNS
  GI50: 0.456 µM
  TGI: 6.3 µM
SR leukemia
  GI50: 0.0961 µM
  TGI: 3.3 µM
SW-620 colon
  GI50: 0.568 µM
  TGI: > 100 µM
T-47D breast
  GI50: 1.84 µM
  TGI: > 100 µM
TK-10 renal
  GI50: 3.52 µM
  TGI: > 100 µM
U251 CNS
  GI50: 0.479 µM
  TGI: > 40.1 µM
UACC-257 melanoma
  GI50: 2.31 µM
  TGI: > 100 µM
UACC-62 melanoma
  GI50: 0.532 µM
  TGI: 6.44 µM
UO-31 renal
  GI50: 0.932 µM
  TGI: > 100 µM

## Clc1ccc2oc3c(NCCCn4ccnc4)c4ccccc4nc3c2c1
786-0 renal
  GI50: 16.3 µM
  TGI: > 100 µM
A498 renal
  GI50: > 100 µM
  TGI: > 100 µM
A549 NSCLC
  GI50: 34.6 µM
  TGI: > 100 µM
ACHN renal
  GI50: 4.84 µM
  TGI: > 100 µM
BT-549 breast
  GI50: 16.9 µM
  TGI: 51.4 µM
CAKI-1 renal
  GI50: 11.4 µM
  TGI: > 100 µM
CCRF-CEM leukemia
  GI50: 8.66 µM
  TGI: > 100 µM
COLO 205 colon
  GI50: 10.9 µM
  TGI: 37.7 µM
DU-145 prostate
  GI50: 23.3 µM
  TGI: > 100 µM
EKVX NSCLC
  GI50: 51.7 µM
  TGI: > 100 µM
HCC-2998 colon
  GI50: 12.7 µM
  TGI: > 100 µM
HCT-116 colon
  GI50: 4.48 µM
  TGI: 31.3 µM
HCT-15 colon
  GI50: 11.7 µM
  TGI: > 100 µM
HOP-62 NSCLC
  GI50: 16.6 µM
  TGI: > 100 µM
HOP-92 NSCLC
  GI50: 1.78 µM
  TGI: 22.7 µM
HS 578T breast
  GI50: 22.1 µM
  TGI: > 100 µM
HT29 colon
  GI50: 6.14 µM
  TGI: 23.6 µM
IGROV1 ovarian
  GI50: 21.9 µM
  TGI: > 100 µM
KM12 colon
  GI50: 15.4 µM
  TGI: > 100 µM
LOX IMVI melanoma
  GI50: 10.4 µM
  TGI: 39.1 µM
M14 melanoma
  GI50: 28 µM
  TGI: > 100 µM
MALME-3M melanoma
  GI50: 39.2 µM
  TGI: > 100 µM
MCF7 breast
  GI50: 16.1 µM
  TGI: > 100 µM
MDA-MB-231 breast
  GI50: 17.5 µM
  TGI: > 100 µM
MDA-MB-435
  GI50: 25.9 µM
  TGI: > 100 µM
NCI-H226 lung
  GI50: 26.8 µM
  TGI: > 100 µM
NCI-H460 lung
  GI50: 5.26 µM
  TGI: 21.4 µM
NCI-H522 lung
  GI50: 15 µM
  TGI: > 100 µM
NCI/ADR-RES ovarian
  GI50: 7.77 µM
  TGI: > 100 µM
OVCAR-3 ovarian
  GI50: 23.8 µM
  TGI: > 100 µM
OVCAR-4 ovarian
  GI50: 11.8 µM
  TGI: 41.2 µM
OVCAR-5 ovarian
  GI50: 24.9 µM
  TGI: > 100 µM
OVCAR-8 ovarian
  GI50: 12.7 µM
  TGI: > 100 µM
PC-3 prostate
  GI50: 24.9 µM
  TGI: > 100 µM
RPMI-8226 leukemia
  GI50: 16.5 µM
  TGI: 55.9 µM
RXF 393 renal
  GI50: 4.65 µM
  TGI: 23 µM
SF-268 CNS
  GI50: 15.2 µM
  TGI: > 100 µM
SF-295 CNS
  GI50: 17.9 µM
  TGI: 66.6 µM
SF-539 CNS
  GI50: 12.8 µM
  TGI: 28.2 µM
SK-MEL-2 melanoma
  GI50: > 100 µM
  TGI: > 100 µM
SK-MEL-28 melanoma
  GI50: 34.4 µM
  TGI: > 100 µM
SK-MEL-5 melanoma
  GI50: 80.6 µM
  TGI: > 100 µM
SK-OV-3 ovarian
  GI50: > 100 µM
  TGI: > 100 µM
SN12C renal
  GI50: 9.75 µM
  TGI: > 100 µM
SNB-19 CNS
  GI50: 27.8 µM
  TGI: > 100 µM
SNB-75 CNS
  GI50: 20.4 µM
  TGI: > 100 µM
SW-620 colon
  GI50: 5.13 µM
  TGI: > 100 µM
T-47D breast
  GI50: 36 µM
  TGI: > 100 µM
TK-10 renal
  GI50: 79 µM
  TGI: > 100 µM
U251 CNS
  GI50: 26.5 µM
  TGI: > 100 µM
UACC-257 melanoma
  GI50: 39.9 µM
  TGI: > 100 µM
UACC-62 melanoma
  GI50: 19.2 µM
  TGI: 45.5 µM
UO-31 renal
  GI50: 13.2 µM
  TGI: 67.4 µM
